Assay results from PubChem BioAssay (NCI).
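Results reflect a 48-hour exposure of cells in 96-well plates to compound at five concentrations. TGI is the concentration that stops growth completely.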

How the values were obtained:
Test in all cases: growth of human tumour cells (NCI), 48 h
[1] = test system: NCI/ADR-RES ovarian
[2] = test system: DLD-1 colon
[3] = test system: DMS 273 small cell lung
[4] = test system: LXFL 529 NSCLC
[5] = test system: M19-MEL melanoma
[6] = test system: SNB-78 CNS
[7] = test system: XF 498 CNS
[8] = test system: DMS 114 small cell lung
[9] = test system: HOP-18 NSCLC
[10] = test system: KM20L2 colon
[11] = test system: RXF-631 renal

`O=C(Oc1ccc(OC(Oc2ccccc2)c2ccccc2)cc1)c1ccccc1` (stereo not drawn) showed a TGI [1] of over 31.6 µM.

With `O=C1c2cscc2C(=O)c2c(OCc3ccccc3)ccc(OCc3ccccc3)c21` the TGI [1] was over 100 µM.

With `COC1CC(n2ccc(=O)[nH]c2=O)OC1CO` (stereo not drawn) the TGI [1] was over 100 µM.

`CC(=O)[C@]1(C)[C@H](C)O[C@](C)(CO)[C@H]1O[Si](C)(C)c1ccccc1` showed a TGI [1] of over 100 µM.

`NN/C(=N\S(=O)(=O)c1cccc2nsnc12)Nc1ccc(Cl)cc1` gave a TGI [1] of over 100 µM.

Work on `Cc1ccc(C2SC(N)=Nc3c2c(C)nn3C(=O)c2ccc(Cl)cc2)cc1` (stereo not drawn) yielded a TGI [1] of over 10 µM.

`Cc1cc(S(=O)(=O)Nc2nc(N)nc(N(C)C)n2)c(SC(C(=O)O)c2ccccc2)cc1Cl` (stereo not drawn) was tested, and the TGI [1] was over 10 µM.

Molecule `CC1C(=O)CC[C@@]2(C)C(=O)CCCC12O` (stereo partly drawn) has a TGI [1] of over 100 µM.

`N#CC1C(=O)NC2=C(CCOc3c2ccc2ccccc32)C1c1ccc(F)cc1` (stereo not drawn) showed a TGI [1] of 43.8 µM.

`O=C1Cc2c(-c3ccccc3)cc(-c3ccc4ccccc4c3)nc2-c2ccccc2N1` showed a TGI [1] of over 100 µM.

`CCC(C)C(NC(=O)c1c2ccccc2nc2ccccc12)C(=O)O` (stereo not drawn) showed a TGI [1] of over 100 µM.

`N#Cc1nc(NC(=O)c2ccccc2)sc1N` gave a TGI [1] of over 10 µM.

With `CN(C)c1ccc(/C=C2\N=C(c3ccccc3)N(/N=C3\C(=O)Nc4ccccc43)C2=O)cc1` the TGI [1] was over 100 µM.

`COc1cc(/C=C2/C(=O)N=C(NC(C)=O)N2C)ccc1OC(C)=O` showed a TGI [1] of over 100 µM.

`COc1cc(S(=O)(=O)Nc2ccc(-c3csc(/N=C\C=C\c4ccccc4)n3)cc2)ccc1Cl` gave a TGI [1] of over 100 µM.

For `COC(=O)C1=C(OC(=O)/C(=C/c2c(F)cccc2F)c2ccccc2)C(C(=O)OC)[C@@]2(O)[C@@H](C(=O)OC)[C@H](C)C[C@@H]1[C@@H]2C(=O)OC` (stereo partly drawn), the TGI [1] was over 100 µM.

Work on `COc1cc2c(cc1OC)CN1CCc3ccccc3CC1C2` (stereo not drawn) yielded a TGI [1] of over 100 µM.

`CSC1CC2C(CC1(C)SC)C2(C)C` (stereo not drawn) was tested, and the TGI [2] was over 100 µM, the TGI [3] was over 100 µM and the TGI [4] was over 100 µM. The TGI [5] was over 100 µM, the TGI [6] was over 100 µM and the TGI [7] was 50.8 µM.

`O=c1[nH]c(=O)n(C2OC(CO)C(O)C2O)cc1OCc1ccccc1` (stereo not drawn) was tested, and the TGI [2] was over 78 µM, the TGI [8] was over 72.2 µM and the TGI [3] was over 100 µM. It also gave a TGI [9] of over 100 µM, a TGI [10] of over 100 µM and a TGI [4] of over 100 µM. The TGI [5] was over 100 µM, the TGI [11] was over 100 µM and the TGI [6] was over 100 µM. For the same molecule, the TGI [7] was over 100 µM.

Molecule `COc1ccc(C(=O)C(CC2C(=O)CC(C)(C)C(C(=O)C(=O)Nc3c(C)cccc3C)C2=O)c2ccc(OC)cc2)cc1` (stereo not drawn) has a TGI [1] of over 100 µM.

In the case of `Cc1cccc2c(N)c3cccc(C(=O)NCCN4CCOCC4)c3nc12`, the TGI [1] is reported as 42.8 µM.

`Cc1nc2ccc(S(=O)(=O)Nc3ccccc3Cl)cc2c(=O)n1NC(=O)CNc1ccccc1Cl` was tested, and the TGI [1] was over 100 µM.

In the case of `O=c1c2ccccc2n2n1Cc1ccccc1C2`, the TGI [1] is reported as over 100 µM.

`CC(=O)OC(C#N)CC(C)(C)/[N+]([O-])=[N+](\[O-])C(C)(C)CC(C#N)OC(C)=O` (stereo not drawn) showed a TGI [1] of 79.3 µM.

Molecule `O=C(Nn1c(-c2ccccc2)nc2ccccc2c1=O)c1ccc(O)cc1` has a TGI [1] of over 100 µM.

`CCOC(=O)c1nc2cc(C(F)(F)F)ccc2nc1Oc1ccc(C(=O)OC)cc1` showed a TGI [1] of over 100 µM.

With `COc1ccc2[nH]cc(CN3CCC(CO)(c4ccccc4)CC3)c2c1` the TGI [1] was over 100 µM.

`CCN(CC)CCNc1ccc2ncn3c4c(OC)ccc(=O)c4c(O)c1c23` showed a TGI [1] of over 50.9 µM.

Work on `CCN(CC)C(=O)N[C@@H](Cc1ccccc1)C(=O)NC` yielded a TGI [1] of over 100 µM.

`COc1cc2c(cc1OC)C1(c3ccccc3)ON=C(c3ccccc3)N1CS2` (stereo not drawn) gave a TGI [2] of over 100 µM, a TGI [8] of over 100 µM and a TGI [3] of over 100 µM. For the same molecule, the TGI [9] was over 100 µM, the TGI [10] was over 100 µM and the TGI [4] was over 100 µM. It also gave a TGI [5] of over 100 µM, a TGI [11] of over 100 µM and a TGI [6] of over 100 µM. The TGI [7] was over 100 µM.

In the case of `Cc1ccc(N=Nc2c(C)nn(C(=O)CC(=O)Nc3ccc(Cl)cc3)c2C)cc1C`, the TGI [1] is reported as over 100 µM.

`O=C(/C=C/c1ccc(O)cc1)c1cc(O)cc(O)c1` gave a TGI [1] of over 100 µM.

`Cc1ccc(Nc2cc(=O)[nH]c(=O)[nH]2)cc1CS` gave a TGI [1] of over 100 µM.

`Cc1cn(C2CC(N=[N+]=[N-])C(C(=O)O)O2)c(=O)[nH]c1=O` (stereo not drawn) showed a TGI [1] of over 100 µM.

`CSc1n[nH]c2n[nH]c(C)c12` showed a TGI [1] of over 100 µM.

`O=c1nc(-c2ccccc2)scc1-c1ccccc1` showed a TGI [2] of over 100 µM, a TGI [8] of over 100 µM and a TGI [9] of over 100 µM. It also gave a TGI [10] of over 100 µM, a TGI [4] of over 100 µM and a TGI [5] of over 100 µM. It also gave a TGI [11] of over 100 µM and a TGI [7] of over 100 µM.

With `COC(=O)CCSC1=CC(=O)c2nc3ccccc3c3ccnc1c23` the TGI [1] was 46.6 µM.

Work on `CC(=O)O[C@]12CCCCC1C1(O)C(O)CCCC[C@H]12` (stereo partly drawn) yielded a TGI [8] of over 100 µM, a TGI [3] of over 100 µM and a TGI [9] of over 100 µM. For the same molecule, the TGI [10] was over 100 µM, the TGI [4] was over 100 µM and the TGI [5] was over 100 µM. The TGI [6] was over 100 µM.

With `O=C1C(Cl)C(c2cccc(Br)c2)N1c1c(O)c(Cl)cc(Br)c1Cl` (stereo not drawn) the TGI [1] was 89.8 µM.

`CCCCC1=CC1(C#N)[N+](=O)[O-]` (stereo not drawn) showed a TGI [1] of over 100 µM.

For `O=[N+]([O-])c1cc(C(F)(F)F)ccc1S(=O)(=O)N[C@@H]1CCCC[C@H]1NS(=O)(=O)c1ccc(C(F)(F)F)cc1[N+](=O)[O-]`, the TGI [1] was 10 µM.

Molecule `CCCCCCCCCCCCCCC[C@@H](O)C[N+](C)(C)CCO` has a TGI [1] of 34.3 µM.
